pEC50: −log10 of the molar value. Where a name gives a salt, the structure may show the parent alone. Read-outs that look alike come from different tables or passages of the source.
Key:
[1] = biological target: T1, FGF14:Nav1.6 C-tail complex (Homo sapiens, UniProt Q92915+Q9UQD0); experiment: Split-luciferase complementation assay (LCA) in Clone V double stable HEK293 cells; format: cell-based; details: for Z-score (LCA primary screening): 30 µM, average of primary screening (n = 2), vs on-plate 0.3% DMSO; for Z-score (LCA primary screening) / EMax (% Luminescence): 384-well; for Split Luciferase Assay Z-score Set 1 / Split Luciferase Assay % Lum Set 1 / Split Luciferase Assay Z-score Set 2 / Split Luciferase Assay %Lum Set 2: CC_NCI screening; for Split Luciferase Assay Z-score Set 1 / Split Luciferase Assay % Lum Set 1: biological replicate Set 1; for Split Luciferase Assay Z-score Set 1 / Split Luciferase Assay Z-score Set 2: normalized to on-plate 0.3% DMSO controls; for Split Luciferase Assay % Lum Set 1 / Split Luciferase Assay %Lum Set 2: normalized to on-plate 0.3% DMSO controls (n=16 per plate); for Split Luciferase Assay Z-score Set 2 / Split Luciferase Assay %Lum Set 2: biological replicate Set 2; for EMax (% Luminescence): agonists, Clone V cells, normalized to DMSO; for Split Luciferase Assay %Lum Avg: average of Set 1 and Set 2, normalized to 0.3% DMSO controls
T1 construct: polymerase chain reaction (PCR) amplification of the FGF14 open reading frame (nt 1–855); C-terminal fragment of Nav1.6 (amino acids 1763–1976) fused with CD4ΔC-tail (amino acids 1–395); expressed in transfected cells
T1 sequence (Q92915 1-252 isoform Q92915-2): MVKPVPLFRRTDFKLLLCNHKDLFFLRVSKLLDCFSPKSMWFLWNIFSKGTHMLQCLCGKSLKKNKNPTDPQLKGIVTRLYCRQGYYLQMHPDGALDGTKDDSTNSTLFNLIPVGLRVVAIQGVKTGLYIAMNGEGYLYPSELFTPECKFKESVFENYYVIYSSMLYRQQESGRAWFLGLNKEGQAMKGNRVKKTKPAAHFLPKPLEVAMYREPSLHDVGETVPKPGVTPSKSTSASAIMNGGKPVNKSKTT
T1 sequence (Q9UQD0 1763-1976 limits assumed): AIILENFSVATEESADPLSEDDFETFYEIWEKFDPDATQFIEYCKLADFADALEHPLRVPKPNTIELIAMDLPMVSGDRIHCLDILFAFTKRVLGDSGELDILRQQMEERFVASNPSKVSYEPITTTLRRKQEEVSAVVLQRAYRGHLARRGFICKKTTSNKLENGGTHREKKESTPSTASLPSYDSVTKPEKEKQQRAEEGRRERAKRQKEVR

[2] = biological target: full-length P. pyralis luciferase (Photinus pyralis, UniProt P08659, K549A/L550V/N119G/N50D/S548I); format: cell-based
Sequence of full-length P. pyralis luciferase (P08659 whole entry N50D/N119G/S548I/K549A/L550V, looked up): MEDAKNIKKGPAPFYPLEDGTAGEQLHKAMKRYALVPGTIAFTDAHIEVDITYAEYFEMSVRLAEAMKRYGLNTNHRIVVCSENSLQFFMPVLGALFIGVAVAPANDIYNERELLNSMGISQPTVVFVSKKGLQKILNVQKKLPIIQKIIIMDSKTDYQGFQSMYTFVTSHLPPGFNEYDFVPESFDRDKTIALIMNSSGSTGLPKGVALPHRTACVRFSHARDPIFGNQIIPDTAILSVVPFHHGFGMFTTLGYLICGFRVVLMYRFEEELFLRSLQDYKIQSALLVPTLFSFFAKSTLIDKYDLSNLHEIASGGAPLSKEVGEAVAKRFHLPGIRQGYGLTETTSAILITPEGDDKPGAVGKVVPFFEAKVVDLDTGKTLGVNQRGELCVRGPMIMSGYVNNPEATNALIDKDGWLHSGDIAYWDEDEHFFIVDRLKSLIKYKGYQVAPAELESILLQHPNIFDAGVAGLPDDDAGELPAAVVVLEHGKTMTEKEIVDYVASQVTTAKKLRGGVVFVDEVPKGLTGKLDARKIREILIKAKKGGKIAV

[3] = system: Clone V cells; details: human
[4] = in vitro; details: human
[5] = CC_NCI screening, normalized to on-plate 0.3% DMSO controls

Structure (SMILES) | Z-score (LCA primary screening) [1] | Split Luciferase Assay Z-score Set 1 [1] | Split Luciferase Assay % Lum Set 1 [1] [%] | Split Luciferase Assay Z-score Set 2 [1] | Split Luciferase Assay %Lum Set 2 [1] [%] | EMax (% Luminescence) [1] [% Luminescence] | Split Luciferase Assay %Lum Avg [1] [%] | pEC50 ([1]; estimated, 8-point dose response 0.25-30 µM, n = 4 per concentration, library compounds, read-out: EC50) | Luciferase Assay % Lum (full-length luciferase counter-screen) [2, 5] [%] | Luciferase Assay Z-score (full-length luciferase counter-screen) [2, 5] | Toxicity Assay Z-score (CTB cell viability) [3] | viability [4] [%] | Toxicity Assay Z-score (CTB cell viability) ([3]; 16 h, 30 µM) | viability at 16 h, 30 µM [4] [%] | Luciferase Assay % Lum (full-length luciferase counter-screen) [2] [%] | Luciferase Assay Z-score (full-length luciferase counter-screen) [2] | pEC50 [1] | viability at 16 h, 30 µM ([4]; Clone V cells) [%]
O=C(O)CCCc1ccc(N(CCCl)CCCl)cc1 [Chlorambucil, reference compound] | 12.39 | 13.12 | 262.32 | 11.67 | 243.43 | 252.88 | 252.88 | 4.78 | 97.90 | -0.27 | 0.71 | 105 |  |  |  |  |  | 
Nc1ccn([C@@H]2O[C@H](CO)[C@@H](O)[C@@H]2O)c(=O)n1 [Cytarabine hydrochloride] |  | -0.50 | 93.82 | 0.16 | 101.95 |  | 97.88 |  | 93.77 | -0.80 |  |  | 1.12 | 108 |  |  |  | 
CN(C)/N=N/c1[nH]cnc1C(N)=O [Dacarbazine] |  | 3.01 |  | 2.70 | 133.16 |  | 135.23 |  |  |  |  |  | 0.82 | 106 | 99.29 | -0.09 |  | 
Nc1ncn([C@H]2C[C@H](O)[C@@H](CO)O2)c(=O)n1 [Decitabine, reference compound] | 7.41 | 6.88 | 185.13 | 7.95 | 197.66 | 191.40 | 191.40 |  | 110.67 | 1.37 |  |  | 0.87 |  |  |  | 4.54 | 106
C[C@@H](CN1CC(=O)NC(=O)C1)N1CC(=O)NC(=O)C1 [Dexrazoxane] |  | 1.26 | 115.56 | 1.51 | 118.60 |  | 117.08 |  |  |  |  |  | 2.09 | 115 | 109.07 | 1.16 |  | 
C#Cc1cccc(Nc2ncnc3cc(OCCOC)c(OCCOC)cc23)c1 [ERLOTINIB] |  | -0.76 | 90.56 | -1.53 | 81.14 |  | 85.85 |  | 80.96 | -2.44 |  |  | 0.46 |  |  |  |  | 103
O=c1[nH]cc(F)c(=O)[nH]1 [Fluorouracil] |  | 0.64 | 107.95 | 1.34 | 116.51 |  | 112.23 |  | 111.63 | 1.49 |  |  | 0.61 | 104 |  |  |  | 
CS(=O)(=O)c1ccc(C(=O)Nc2ccc(Cl)c(-c3ccccn3)c2)c(Cl)c1 [GDC-0449] |  | 3.10 |  | 2.02 | 124.84 |  | 131.61 |  | 95.45 | -0.58 |  |  | 0.95 | 107 |  |  |  | 
Nc1ccn([C@@H]2O[C@H](CO)[C@@H](O)C2(F)F)c(=O)n1 [Gemcitabine hydrochloride] |  | 0.29 | 103.60 | -0.43 | 94.67 |  | 99.13 |  | 102.42 | 0.31 |  |  | 2.40 |  |  |  |  | 117
